In PubChem BioAssay AID2060484 (Molecular Pharmacology Branch, DTP, NCI, 2025):
Where “and” joins values, the source holds several entries; their conditions need not be identical. Identical values can stand only once.

Tested on: SUM149PT spheroids with HUVEC/MSC, viability
Experiment: Anticancer human tumor SUM149PT cell line growth inhibition [GQUAD];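 also: spheroids exposed to drugs for seven days before readout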;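 as to viability, T/C: percent viability relative to DMSO vehicle control taken as 100%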
Conditions: for viability, T/C: stronger effect = lower value
Excerpt: DNA G-quadruplex Stabilizer Agents in Combinations in Complex Spheroids
A high-throughput screen of multi-cell type tumor spheroids was designed to identify active combinations of DNA G-quadruplex stabilizer agents and targeted small molecules. Complex spheroids include a stromal component modeled by human endothelial cells (HUVEC) and fibroblasts modeled by human mesenchymal stem cells (MSCs). The concentration ranges selected for each drug and investigational agent were based upon clinically achievable concentrations if the clinical Cmax of the agent was known.
Compounds. The drugs and investigational agents: pidnarulex (CX-5461; NSC782164), APTO-253 (NSC789042), BRACO-19 (NSC847499), peposertib (NSC802822), ceralasertib (NSC780249), elimusertib (NSC800525), camonsertib (NSC841442), AZD-1390 (NSC803789), olaparib (NSC753686), talazoparib (NSC767125), ART-558 (NSC835418), sotorasib (NSC818433), MRTX-1133 (NSC836407), SN-38 (NSC673596), topotecan (NSC609699), etoposide (NSC141540), doxorubicin (NSC123127), gemcitabine (NSC613327), 5-fluorouracil (NSC19893), paclitaxel (NSC125973), vemurafenib (NSC761431), panobinostat (NSC761190), R-306465 (JNJ-16241199; NSC773264), adavosertib (NSC754352), TP-3654 (NSC805149), carboplatin (NSC241240), KSQ-4279 (NSC840948), and staurosporine (NSC755774) were obtained from the National Cancer Institute (NCI) Developmental Therapeutics Program Chemical Repository (34). The FDA-approved anticancer drug set is available from the NCI Developmental Therapeutics Program. […] The stock solutions were prepared in dimethyl sulfoxide (DMSO, Sigma-Aldrich, St. Louis, MO, cat. D2650) at 800-fold the tested concentration and stored at -70 degrees C prior to their use. All drugs and investigational agents were tested over a range starting from a high concentration at or near the clinical Cmax and decreasing in half-log increments. If the clinical Cmax for an agent had not been determined, the highest concentration tested was 10 microM.
2.3 Cell Culture. All cells were maintained in an incubator at 37 degrees C and 5% CO2 with 95% humidity. The PDC lines were cultured according to standard operating procedures established by the NCI PDMR. All PDCs were thawed and cultured in Matrigel-coated flasks prepared with a working solution of 1X Ham's F-12 nutrient mix, without supplementation (Invitrogen, cat. 11765054), 100 U/mL penicillin-streptomycin (Invitrogen, cat. 15140122), and 2.5% Matrigel (Corning Inc., cat. 354248) for the first three passages. The 857933-349-R-J2-PDC line was cultured in 6C/Colon 1B media, which includes advanced DMEM/F-12 (Thermo Fisher Scientific, cat. 12634028), 10 mM HEPES (Thermo Fisher Scientific, cat. 15630080), 1X GlutaMAX supplement (Thermo Fisher Scientific, cat. 35050061), 0.1 mg/mL primocin (InvivoGen, cat. ant-pm-2), 10% defined fetal bovine serum, heat inactivated (HyClone Laboratories Inc., cat. SH30070.03HI), 50% L-WRN conditioned media (ATCC, cat. CRL-3276), 1.25 mM N-Acetyl-L-cysteine (Sigma-Aldrich, cat. A9165), 10 mM nicotinamide (Sigma-Aldrich, cat. N0636), 1X B-27 supplement (Thermo Fisher Scientific, cat. 17504044), 1X N-2 supplement (Thermo Fisher Scientific, cat. 17502048), 10 microM Y-27632 dihydrochloride (Tocris Bioscience, cat. 1254), and 50 ng/mL human EGF recombinant protein (Thermo Fisher Scientific, cat. PHG0311). The 485176-168-R4-J1-PDC line was cultured in Panc media, which includes all 6C/Colon 1B media components plus 100 ng/mL human FGF-10 (Thermo Fisher Scientific, cat. 100-26), 500 nM SB-431542 (Selleckchem, cat. S1067), and gastrin (Tocris, cat. 3006).
[…]

`Cc1cccc(N(C)C(=O)C2C(O)CCN2c2nc(C)cc(C(F)(F)F)c2C#N)c1` (stereo not drawn) was tested. Which viability, T/C (compound 0.0316 µM) did it give?
Its viability, T/C is 104% and 99.7% and 111%.

And the viability, T/C (compound 0.1 µM)?
Its viability, T/C is 97.8% and 92.2% and 88.8%.

And the viability, T/C (compound 0.316 µM)?
The viability, T/C was 82.7% and 99.5% and 103%.

And the viability, T/C (compound 1 µM)?
Its viability, T/C is 89% and 97.5% and 98.3%.

What about the viability, T/C (compound 3.16 µM) of the same compound?
The viability, T/C was 102% and 110% and 105%.

And the viability, T/C (compound 10 µM)?
The viability, T/C was 103% and 108% and 100%.

And the IC50 (curve of compound)?
The IC50 was over 10 µM.

Which results are given for `CCCS(=O)(=O)Nc1ccc(F)c(C(=O)c2c[nH]c3ncc(-c4ccc(Cl)cc4)cc23)c1F`?
viability, T/C (compound 0.0316 µM): 107% and 95.3% and 95.8%; viability, T/C (compound 0.1 µM): 101% and 100% and 102%; viability, T/C (compound 0.316 µM): 101% and 97.4% and 107%; viability, T/C (compound 1 µM): 97.1% and 102% and 107%; viability, T/C (compound 3.16 µM): 76% and 70.9% and 76.2%; viability, T/C (compound 10 µM): 54.1% and 46.8% and 37.6%; IC50 (curve of compound): > 10 µM and 8.57 µM and 6.91 µM

`O=c1[nH]cc(F)c(=O)[nH]1` was tested. Which viability, T/C (compound 0.0316 µM) did it give?
The viability, T/C was 103% and 95.7% and 106%.

And the viability, T/C (compound 0.1 µM)?
Its viability, T/C is 93.6% and 90.8% and 93.9%.

What about the viability, T/C (compound 0.316 µM) of the same compound?
Its viability, T/C is 108% and 110% and 101%.

And the viability, T/C (compound 1 µM)?
The viability, T/C was 102% and 107% and 96%.

And the viability, T/C (compound 3.16 µM)?
The viability, T/C was 56.9% and 55.7% and 61.6%.

What about the viability, T/C (compound 10 µM) of the same compound?
Its viability, T/C is 51.6% and 43.3% and 50.6%.

And the IC50 (curve of compound)?
Its IC50 is > 10 µM and 5.36 µM.

`C#Cc1c(F)ccc2cc(O)cc(-c3ncc4c(N5CC6CCC(C5)N6)nc(OCC56CCCN5CC(F)C6)nc4c3F)c12` (stereo not drawn) + CN(C)c1ccc(Nc2c3ccc(NC(=O)CCN4CCCC4)cc3nc3cc(NC(=O)CCN4CCCC4)ccc23)cc1 was tested. Which IC50 (curve of first compound, second compound 0.0316 µM) did it give?
The IC50 was 5.27 µM.

What about the IC50 (curve of first compound, second compound 0.1 µM) of the same compound?
Its IC50 is 7.47 µM.

And the IC50 (curve of first compound, second compound 0.316 µM)?
The IC50 was 2.45 µM.

And the IC50 (curve of first compound, second compound 1 µM)?
Its IC50 is 4.57 µM.

What about the IC50 (curve of first compound, second compound 3.16 µM) of the same compound?
The IC50 was 1.57 µM.

And the IC50 (curve of first compound, second compound 10 µM)?
The IC50 was 1.71 µM.

What about the viability, T/C (second compound 0.0316 µM, first compound 0.0316 µM) of the same compound?
Its viability, T/C is 100%.

What about the viability, T/C (second compound 0.0316 µM, first compound 0.1 µM) of the same compound?
Its viability, T/C is 93.3%.

What about the viability, T/C (second compound 0.0316 µM, first compound 0.316 µM) of the same compound?
The viability, T/C was 73.5%.

And the viability, T/C (second compound 0.0316 µM, first compound 1 µM)?
Its viability, T/C is 73.8%.

And the viability, T/C (second compound 0.0316 µM, first compound 3.16 µM)?
Its viability, T/C is 57.2%.

What about the viability, T/C (second compound 0.0316 µM, first compound 10 µM) of the same compound?
Its viability, T/C is 40.8%.

And the viability, T/C (second compound 0.1 µM, first compound 0.0316 µM)?
Its viability, T/C is 107%.

What about the viability, T/C (second compound 0.1 µM, first compound 0.1 µM) of the same compound?
The viability, T/C was 102%.

And the viability, T/C (second compound 0.1 µM, first compound 0.316 µM)?
The viability, T/C was 88.1%.

What about the viability, T/C (second compound 0.1 µM, first compound 1 µM) of the same compound?
Its viability, T/C is 66.3%.

What about the viability, T/C (second compound 0.1 µM, first compound 3.16 µM) of the same compound?
Its viability, T/C is 58.1%.

What about the viability, T/C (second compound 0.1 µM, first compound 10 µM) of the same compound?
Its viability, T/C is 46.6%.

And the viability, T/C (second compound 0.316 µM, first compound 0.0316 µM)?
Its viability, T/C is 93.6%.

And the viability, T/C (second compound 0.316 µM, first compound 0.1 µM)?
The viability, T/C was 83.9%.

What about the viability, T/C (second compound 0.316 µM, first compound 0.316 µM) of the same compound?
Its viability, T/C is 68.7%.

What about the viability, T/C (second compound 0.316 µM, first compound 1 µM) of the same compound?
The viability, T/C was 57.1%.

What about the viability, T/C (second compound 0.316 µM, first compound 3.16 µM) of the same compound?
The viability, T/C was 49.6%.

What about the viability, T/C (second compound 0.316 µM, first compound 10 µM) of the same compound?
Its viability, T/C is 38.6%.

And the viability, T/C (second compound 1 µM, first compound 0.0316 µM)?
The viability, T/C was 75.5%.

And the viability, T/C (second compound 1 µM, first compound 0.1 µM)?
The viability, T/C was 82.8%.

And the viability, T/C (second compound 1 µM, first compound 0.316 µM)?
The viability, T/C was 77.2%.

And the viability, T/C (second compound 1 µM, first compound 1 µM)?
The viability, T/C was 61.3%.

And the viability, T/C (second compound 1 µM, first compound 3.16 µM)?
Its viability, T/C is 61.1%.

And the viability, T/C (second compound 1 µM, first compound 10 µM)?
Its viability, T/C is 34.1%.

And the viability, T/C (second compound 3.16 µM, first compound 0.0316 µM)?
The viability, T/C was 88.2%.

What about the viability, T/C (second compound 3.16 µM, first compound 0.1 µM) of the same compound?
Its viability, T/C is 81.6%.

And the viability, T/C (second compound 3.16 µM, first compound 0.316 µM)?
Its viability, T/C is 73.3%.

And the viability, T/C (second compound 3.16 µM, first compound 1 µM)?
Its viability, T/C is 51.3%.

What about the viability, T/C (second compound 3.16 µM, first compound 3.16 µM) of the same compound?
Its viability, T/C is 45.2%.

And the viability, T/C (second compound 3.16 µM, first compound 10 µM)?
Its viability, T/C is 31%.

And the viability, T/C (second compound 10 µM, first compound 0.0316 µM)?
The viability, T/C was 80.7%.

What about the viability, T/C (second compound 10 µM, first compound 0.1 µM) of the same compound?
The viability, T/C was 86.6%.

And the viability, T/C (second compound 10 µM, first compound 0.316 µM)?
The viability, T/C was 62.8%.

And the viability, T/C (second compound 10 µM, first compound 1 µM)?
The viability, T/C was 56.3%.

What about the viability, T/C (second compound 10 µM, first compound 3.16 µM) of the same compound?
The viability, T/C was 45%.

What about the viability, T/C (second compound 10 µM, first compound 10 µM) of the same compound?
Its viability, T/C is 19%.
